Measurements as given in the NIST ThermoML archive (doi:10.1016/j.fluid.2012.08.023).
Numbers after ± are expanded uncertainties.

Conditions: Liquid, Closed cell (Static) method

Structure (SMILES)	vapor or sublimation pressure (268.13 K) [kPa]	vapor or sublimation pressure (278.36 K) [kPa]	vapor or sublimation pressure (288.16 K) [kPa]	vapor or sublimation pressure (298.13 K) [kPa]
C=C [ethene]	3648.5 ± 22	4611.2 ± 26		
FC(F)(F)C(F)(F)C(F)(F)C(F)(F)F [decafluorobutane]	91 ± 12	134.6 ± 12	192.9 ± 12	268.8 ± 12
